{"source": "patent US8759098B2", "about": "“Method for cloning pluripotent stem cells” (Boston Biomedical Research Institute, Inc., priority 2009, dated 2014)", "format_in_all_cases": "cell-based, mouse", "key": {"[1]": {"test_system": "SACK-responsive, Pdx1-positive Panstra-25 pancreatic stem cells", "experiment": "Gene-free iPSC reprogramming on STO feeders, colony phenotypes, Panstra-25", "settings": "Panstra-25; hiFBS, 1 mM Xn", "method": "(§1) Each tested SACK-derived cell strain was cultured on STO cell feeder monolayers in control medium with 10% DFBS, dialyzed fetal bovine serum (DFBS) or either of two commercial media for culture of murine embryonic stem cells (ESCs) and for the culture of reprogrammed cells such as iPSCs. Each medium condition was evaluated with or without supplementation with 1 mM xanthine (Xn). P/S denotes routine use of the antibiotics penicillin and streptomycin.\n(§2) The method is an original pharmacological procedure for producing pluripotent stem cells. Cell strains derived in xanthine (Xn)-supplemented medium, by the method of suppression of asymmetric cell kinetics (SACK), were cultured in commercial media specified for the culture and/or production of pluripotent stem cells such as embryonic stem cells and iPSCs. Approximately 150,000 cells were plated on confluent STO cell feeders (i.e., mouse embryonic fibroblasts pre-treated with mitomycin C) in 10-cm culture dishes. In 2 weeks, iPSC-like cell colonies were detected.\n(§3) To establish clonal strains, single colonies were picked, cultured in individual wells, and expanded for further study and cryo-preservation. A high fraction of the derived cell clones have morphological and biochemical properties indicative of iPSC cells.\n(§4) Tissue-specific stem cells (e.g., Panstra-25 and Panstra-12 mouse pancreatic stem cell strains in the instant example) were cultured on mitomycin C-treated STO cell monolayers in commercial embryonic stem cell medium supplemented with the purine salvage base xanthine at 1 mM concentration (FIG. 4). Within 2-3 weeks of culture under otherwise standard conditions, cell colonies with embryonic stem cell-like morphology developed (FIG. 7B). These colonies were removed by mild trypsin treatment, transferred to individual cell culture wells prepared with STO cell feeders, and expanded in the respective embryonic stem cell culture medium supplemented with 1 mM xanthine (FIG. 5). The expanded cell clones expressed alkaline phosphatase (FIG. 8), a biochemical biomarker for the pluripotent phenotype of embryonic stem cells and iPSC cells. […] Xn supplementation increased the average production efficiency by as much as 3-fold (Table 6)."}, "[2]": {"test_system": "SACK-responsive, Pdx1-negative Panstra-12 pancreatic stem cells", "experiment": "Gene-free iPSC reprogramming on STO feeders, colony phenotypes, Panstra-12", "settings": "for Estimated gene-free iPSC colony formation efficiency, ES, AP+ (iPSC state) / Estimated gene-free iPSC colony formation efficiency, ES, AP− / Estimated gene-free iPSC colony formation efficiency, Fl, AP+ / Estimated gene-free iPSC colony formation efficiency, Fl, AP− / Phenotype ES, AP+ (iPSC state) of individual cell clones following expansion, clones/total / Phenotype ES, AP+ (iPSC state) of individual cell clones following expansion, percent / Phenotype ES, AP− of individual cell clones following expansion, clones/total / Phenotype ES, AP− of individual cell clones following expansion, percent / Phenotype Fl, AP+ of individual cell clones following expansion, clones/total / Phenotype Fl, AP+ of individual cell clones following expansion, percent / Phenotype Fl, AP− of individual cell clones following expansion, clones/total / Phenotype Fl, AP− of individual cell clones following expansion, percent: Panstra-12, 1 mM Xn", "method": "as §1, §2, §3, §4"}, "Panstra 11 [3]": {"test_system": "Panstra 11", "experiment": "Gene-free iPSC reprogramming, Panstra 11", "settings": "Panstra 11, SACK agent Xn", "method": "as §1, §2\n(§5) Tissue-specific stem cells (e.g., Panstra-25 and Panstra-12 mouse pancreatic stem cell strains in the instant example) were cultured on mitomycin C-treated STO cell monolayers in commercial embryonic stem cell medium supplemented with the purine salvage base xanthine at 1 mM concentration (FIG. 4). […]"}, "Panstra 56 [4]": {"test_system": "Panstra 56", "experiment": "Gene-free iPSC reprogramming, Panstra 56", "settings": "Panstra 56, SACK agent Xn", "method": "as §1, §2, §5"}, "Panstra 11 [5]": {"test_system": "Panstra 11", "experiment": "SACK responsiveness (cell kinetics, colony formation), Panstra 11", "design": "key: SACK-responsive (R); non-responsive (NR)", "settings": "Panstra 11, SACK agent Xn", "method": "(§6) Cells were plated at colony forming density in SACK-free culture medium (Control) or culture medium supplemented to 1 mM concentration with the SACK agents xanthosine (Xs), xanthine (Xn), or hypoxanthine (Hx).\n(§7) The terms “SACK-R” and “Xn-responsive” are used interchangeably. Xn-responsive cells are not transformed cells.\n(§8) In the example, the differentiated cells are adult mouse pancreatic islet cells and Xn is the chemical compound used to suppress asymmetric cell kinetics (SACK). […] These Xn-treated and Xn-responsive cells then proceeded to express alkaline phosphatase, a known enzyme marker that is highly expressed in undifferentiated cells such as primordial germ cells (FIG. 8), after culture in media that support the proliferation of mouse pluripotent stem cells. Under these conditions, these Xn-expanded and Xn-responsive cells also multiply to form colonies that take on a clonal mouse embryonic stem cell-like morphology in culture, resembling a compact clump of round tiny cells, the clump having a smooth and well defined edge (FIG. 7B).\n(§9) The SACK-derived clonal pancreatic cell strains have properties of either beta-cell precursors (Pdx1+) or more primitive pancreatic cells (Pdx1−). In the colony formation analyses, three hundred (300) cells were plated in replicate (n=3) 30-mm diameter culture dishes. […] Ten days later, plates were stained with crystal violet and colonies counted. […]"}, "Panstra 12": {"test_system": "Panstra 12", "experiment": "SACK responsiveness (cell kinetics, colony formation), Panstra 12", "design": "key: SACK-responsive (R); non-responsive (NR)", "settings": "Panstra 12, SACK agent Xn", "text": "as §7, §8\n(§10) The SACK-derived clonal pancreatic cell strains have properties of either beta-cell precursors (Pdx1+) or more primitive pancreatic cells (Pdx1−). In the colony formation analyses, three hundred (300) cells were plated in replicate (n=3) 30-mm diameter culture dishes. Twenty-four hours later, the culture medium was replaced with the medium supplemented with SACK agents as indicated. Ten days later, plates were stained with crystal violet and colonies counted. Xs, xanthosine; Xn, xanthine; Hx hypoxanthine."}, "Panstra 25": {"test_system": "Panstra 25", "experiment": "SACK responsiveness (cell kinetics, colony formation), Panstra 25", "design": "key: SACK-responsive (R); non-responsive (NR)", "settings": "Panstra 25, SACK agent Xn", "method": "as §6, §7, §8, §9"}, "Panstra 56 [6]": {"test_system": "Panstra 56", "experiment": "SACK responsiveness (cell kinetics, colony formation), Panstra 56", "design": "key: SACK-responsive (R); non-responsive (NR)", "settings": "Panstra 56, SACK agent Xn", "text": "as §7, §8, §10"}, "SACK-R strain Panstra-25": {"test_system": "SACK-R strain Panstra-25", "experiment": "Insulin expression by immunofluorescence, pancreatic differentiation", "settings": "routine culture conditions with Xn supplementation, three days", "text": "Upper panels, routine culture conditions with Xn supplementation; lower panels, Xn-free differentiation conditions. DAPI, detection of corresponding cell nuclei. The expression of insulin was detected by immunofluorescence (data not shown). In order to study the formation of islet-like clusters after induction of differentiation in Xn-free medium, pancreatic beta-cell differentiation was induced by plating the cells on a poly-D-lysine substrate and changing growth medium to medium containing 1% dialysed fetal bovine serum, 20 ng/mL epidermal growth factor (EGF), 10 mM nicotinamide, and 25 mM glucose. […] Insulin was expressed in cells differentiated in Xn-free conditions after three days. The expression of insulin was detected by immunofluorescence (data not shown). DAPI, detection of corresponding cell nuclei. […] These properties of self-renewal in an undifferentiated state and the ability to produce differentiated pancreatic cells define the SACK-R strains as pancreatic tissue stem cells."}}, "data": [{"smiles": "O=c1[nH]c(=O)c2[nH]cnc2[nH]1", "note": "[Xn, xanthine]", "values": [{"measurement": "Phenotype Fl, AP− of individual cell clones following expansion, percent", "setting": "[1]", "value": 26, "unit": "%"}, {"measurement": "iPSC (gene-free iPSC reprogramming)", "setting": "[2]; Panstra 12, SACK agent Xn", "value": "Yes"}, {"measurement": "Estimated gene-free iPSC colony formation efficiency, ES, AP+ (iPSC state)", "setting": "[2]; DFBS", "value": 0.000, "unit": "%"}, {"measurement": "Estimated gene-free iPSC colony formation efficiency, ES, AP−", "setting": "[2]; DFBS", "value": 0.047, "unit": "%"}, {"measurement": "Estimated gene-free iPSC colony formation efficiency, Fl, AP+", "setting": "[2]; DFBS", "value": 0.027, "unit": "%"}, {"measurement": "Estimated gene-free iPSC colony formation efficiency, Fl, AP−", "setting": "[2]; DFBS", "value": 0.080, "unit": "%"}, {"measurement": "Phenotype ES, AP+ (iPSC state) of individual cell clones following expansion, clones/total", "setting": "[2]; DFBS", "value": "0/23"}, {"measurement": "Phenotype ES, AP+ (iPSC state) of individual cell clones following expansion, percent", "setting": "[2]; DFBS", "value": 0, "unit": "%"}, {"measurement": "Phenotype ES, AP− of individual cell clones following expansion, clones/total", "setting": "[2]; DFBS", "value": "7/23"}, {"measurement": "Phenotype ES, AP− of individual cell clones following expansion, percent", "setting": "[2]; DFBS", "value": 31, "unit": "%"}, {"measurement": "Phenotype Fl, AP+ of individual cell clones following expansion, clones/total", "setting": "[2]; DFBS", "value": "4/23"}, {"measurement": "Phenotype Fl, AP+ of individual cell clones following expansion, percent", "setting": "[2]; DFBS", "value": 17, "unit": "%"}, {"measurement": "Phenotype Fl, AP− of individual cell clones following expansion, clones/total", "setting": "[2]; DFBS", "value": "12/23"}, {"measurement": "Phenotype Fl, AP− of individual cell clones following expansion, percent", "setting": "[2]; DFBS", "value": 52, "unit": "%"}, {"measurement": "Estimated gene-free iPSC colony formation efficiency, ES, AP+ (iPSC state)", "setting": "[2]; KOSR", "value": 0.067, "unit": "%"}, {"measurement": "Estimated gene-free iPSC colony formation efficiency, ES, AP−", "setting": "[2]; KOSR", "value": 0.033, "unit": "%"}, {"measurement": "Estimated gene-free iPSC colony formation efficiency, Fl, AP+", "setting": "[2]; KOSR", "value": 0.007, "unit": "%"}, {"measurement": "Estimated gene-free iPSC colony formation efficiency, Fl, AP−", "setting": "[2]; KOSR", "value": 0.007, "unit": "%"}, {"measurement": "Phenotype ES, AP+ (iPSC state) of individual cell clones following expansion, clones/total", "setting": "[2]; KOSR", "value": "10/17"}, {"measurement": "Phenotype ES, AP+ (iPSC state) of individual cell clones following expansion, percent", "setting": "[2]; KOSR", "value": 59, "unit": "%"}, {"measurement": "Phenotype ES, AP− of individual cell clones following expansion, clones/total", "setting": "[2]; KOSR", "value": "5/17"}, {"measurement": "Phenotype ES, AP− of individual cell clones following expansion, percent", "setting": "[2]; KOSR", "value": 29, "unit": "%"}, {"measurement": "Phenotype Fl, AP+ of individual cell clones following expansion, clones/total", "setting": "[2]; KOSR", "value": "1/17"}, {"measurement": "Phenotype Fl, AP+ of individual cell clones following expansion, percent", "setting": "[2]; KOSR", "value": 6, "unit": "%"}, {"measurement": "Phenotype Fl, AP− of individual cell clones following expansion, clones/total", "setting": "[2]; KOSR", "value": "1/17"}, {"measurement": "Phenotype Fl, AP− of individual cell clones following expansion, percent", "setting": "[2]; KOSR", "value": 6, "unit": "%"}, {"measurement": "Estimated gene-free iPSC colony formation efficiency, ES, AP+ (iPSC state)", "setting": "[2]; hiFBS", "value": 0.020, "unit": "%"}, {"measurement": "Estimated gene-free iPSC colony formation efficiency, ES, AP−", "setting": "[2]; hiFBS", "value": 0.033, "unit": "%"}, {"measurement": "Estimated gene-free iPSC colony formation efficiency, Fl, AP+", "setting": "[2]; hiFBS", "value": 0.000, "unit": "%"}, {"measurement": "Estimated gene-free iPSC colony formation efficiency, Fl, AP−", "setting": "[2]; hiFBS", "value": 0.073, "unit": "%"}, {"measurement": "Phenotype ES, AP+ (iPSC state) of individual cell clones following expansion, clones/total", "setting": "[2]; hiFBS", "value": "3/19"}, {"measurement": "Phenotype ES, AP+ (iPSC state) of individual cell clones following expansion, percent", "setting": "[2]; hiFBS", "value": 16, "unit": "%"}, {"measurement": "Phenotype ES, AP− of individual cell clones following expansion, clones/total", "setting": "[2]; hiFBS", "value": "5/19"}, {"measurement": "Phenotype ES, AP− of individual cell clones following expansion, percent", "setting": "[2]; hiFBS", "value": 26, "unit": "%"}, {"measurement": "Phenotype Fl, AP+ of individual cell clones following expansion, clones/total", "setting": "[2]; hiFBS", "value": "0/19"}, {"measurement": "Phenotype Fl, AP+ of individual cell clones following expansion, percent", "setting": "[2]; hiFBS", "value": 0, "unit": "%"}, {"measurement": "Phenotype Fl, AP− of individual cell clones following expansion, clones/total", "setting": "[2]; hiFBS", "value": "11/19"}, {"measurement": "Phenotype Fl, AP− of individual cell clones following expansion, percent", "setting": "[2]; hiFBS", "value": 58, "unit": "%"}, {"measurement": "higher rate of iPSC-like colony production, average", "setting": "[2]; Pdx1− strain supplemented with Xn, p=0.024", "value": 3, "unit": "fold"}, {"measurement": "increase of the conversion rate to iPSC", "setting": "[2]; Xn in the iPSC media at 1 mM, strain not given", "value": "approximately 3 fold"}, {"measurement": "increase of the average production efficiency of iPSC-like cell clones", "setting": "[2]; Xn supplementation (Table 6)", "value": "≤ 3", "unit": "fold"}, {"measurement": "iPSC (gene-free iPSC reprogramming)", "setting": "Panstra 11 [3]", "value": "No"}, {"measurement": "iPSC (gene-free iPSC reprogramming)", "setting": "Panstra 56 [4]", "value": "No"}, {"measurement": "SACK Type", "setting": "Panstra 11 [5]", "value": "NR"}, {"measurement": "SACK Type", "setting": "Panstra 12", "value": "R"}, {"measurement": "SACK Type", "setting": "Panstra 25", "value": "R"}, {"measurement": "SACK Type", "setting": "Panstra 56 [6]", "value": "NR"}, {"measurement": "expression of insulin (immunofluorescence)", "setting": "SACK-R strain Panstra-25", "value": "no expressed insulin was detectable"}]}]}
